Measured values taken from patent US20240391862A1, “(1,4,5-TRISUBSTITUTED-1H-PYRAZOL-3-YL)OXY-2-ALKOXY ALKYL ACIDS AND THEIR DERIVATIVES, THEIR SALTS AND THEIR USE AS HERBICIDAL AGENTS” (Bayer AKtiengesellschaft, priority 2021, published 2024).

How the values were obtained:
Experiment in all cases: Post-emergence herbicidal effect, greenhouse pot test
[1] = system: DIGSA; assay type: in vivo, Digitaria sanguinalis; settings: visual rating about 3 weeks after treatment; for Post-emergence effect against DIGSA: 320 g/ha; for pest or weed control at 80 g/ha: Digitaria sanguinalis, 504 h, read-out: Post-emergence effect against DIGSA
In short: (§1)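 Greenhouse pot plants in sandy loam receive a one-leaf-stage spray at 20 to 320 g/ha. Activity is assessed visually around 3 weeks afterwards on a 0–100% scale, where 100% means the plants have died.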

[2] = system: KCHSC; assay type: in vivo; settings: for pest or weed control at 20 g/ha: 504 h, read-out: Post-emergence effect against KCHSC in %
In short: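 Visual rating of activity against untreated plants (100% = plants died, 0% = no effect), done about 3 weeks after treatment. Compounds applied at 20–320 g/ha as aqueous spray (600 l/ha, 0.5% additive) from WP or EC formulations onto one-leaf-stage plants grown in sandy loam under greenhouse conditions.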

[3] = system: ALOMY; assay type: in vivo, Alopecurus myosuroides; settings: visual rating about 3 weeks after treatment
In short: as §1

[4] = system: AVEFA; assay type: in vivo, Avena fatua; settings: visual rating about 3 weeks after treatment
In short: as §1

[5] = system: LOLRI; assay type: in vivo, Lolium rigidum
In short: as §1

[6] = system: POLCO; assay type: in vivo, Fallopia convolvulus
In short: as §1

[7] = system: ECHCG; assay type: in vivo, Echinochloa crus-galli; settings: for Post-emergence effect against ECHCG: 20 g/ha, visual rating about 3 weeks after treatment
In short: as §1

[8] = system: VERPE; assay type: in vivo, Veronica persica
In short: as §1

[9] = system: ABUTH; assay type: in vivo, Abutilon theophrasti; settings: visual rating about 3 weeks after treatment
In short: as §1

[10] = system: MATIN; assay type: in vivo, Tripleurospermum inodorum
In short: as §1

[11] = system: SETVI; assay type: in vivo, Setaria viridis; settings: for pest or weed control at 20 g/ha: Setaria viridis, 504 h, read-out: Post-emergence effect against SETVI in %
In short: as §1

[12] = system: PHBPU; assay type: in vivo, Ipomoea purpurea
In short: as §1

[13] = system: VIOTR; assay type: in vivo, Viola tricolor
In short: as §1

[14] = system: AMARE; assay type: in vivo, Amaranthus retroflexus; settings: visual rating about 3 weeks after treatment
In short: as §1

## COC(Oc1nn(-c2ncccc2F)c(-c2cncc(F)c2)c1C1CC1)C(=O)O (stereo not shown) [Example I-84]
[1]
  Post-emergence effect against DIGSA: 90%
  pest or weed control at 80 g/ha: 80%
[2]; 80 g/ha
  Post-emergence effect against KCHSC in %: 90%
[2]; 320 g/ha
  Post-emergence effect against KCHSC in %: 90%
[2]
  pest or weed control at 20 g/ha: 90%
[3]; 320 g/ha
  Post-emergence effect against ALOMY: 90%
[4]; 80 g/ha
  Post-emergence effect against AVEFA: 90%
[4]; 320 g/ha
  Post-emergence effect against AVEFA: 90%
[5]; 320 g/ha
  Post-emergence effect against LOLRI in %: 90%
[5]; Lolium rigidum, 504 h, 80 g/ha, read-out: Post-emergence effect against LOLRI in %
  pest or weed control at 80 g/ha: 90%
[6]; 80 g/ha
  Post-emergence effect against POLCO in %: 90%
[6]; 320 g/ha
  Post-emergence effect against POLCO in %: 90%
[7]
  Post-emergence effect against ECHCG: 90%
[7]; 80 g/ha
  Post-emergence effect against ECHCG in %: 90%
[7]; 320 g/ha
  Post-emergence effect against ECHCG in %: 90%
[8]; 80 g/ha
  Post-emergence effect against VERPE in %: 90%
[8]; 320 g/ha
  Post-emergence effect against VERPE in %: 90%
[9]; 80 g/ha
  Post-emergence effect against ABUTH: 80%
[9]; 320 g/ha
  Post-emergence effect against ABUTH: 80%
[10]; 80 g/ha
  Post-emergence effect against MATIN in %: 80%
[10]; 320 g/ha
  Post-emergence effect against MATIN in %: 80%
[11]; 80 g/ha
  Post-emergence effect against SETVI in %: 90%
[11]; 320 g/ha
  Post-emergence effect against SETVI in %: 90%
[11]
  pest or weed control at 20 g/ha: 80%
[12]; 80 g/ha
  Post-emergence effect against PHBPU in %: 90%
[12]; 320 g/ha
  Post-emergence effect against PHBPU in %: 90%
[12]; Ipomoea purpurea, 504 h, 20 g/ha, read-out: Post-emergence effect against PHBPU in %
  pest or weed control at 20 g/ha: 80%
[13]; 80 g/ha
  Post-emergence effect against VIOTR in %: 90%
[13]; 320 g/ha
  Post-emergence effect against VIOTR in %: 90%
[14]; 320 g/ha
  Post-emergence effect against AMARE: 80%
[14]; Amaranthus retroflexus, 504 h, 80 g/ha, read-out: Post-emergence effect against AMARE
  pest or weed control at 80 g/ha: 80%

## COC(=O)C(OC)Oc1nn(-c2ncccc2F)c(-c2cncc(F)c2)c1C1CC1 (stereo not shown) [Example I-87]
[1]
  Post-emergence effect against DIGSA: 90%
  pest or weed control at 80 g/ha: 80%
[2]; 80 g/ha
  Post-emergence effect against KCHSC in %: 90%
[2]; 320 g/ha
  Post-emergence effect against KCHSC in %: 90%
[2]
  pest or weed control at 20 g/ha: 90%
[3]; 80 g/ha
  Post-emergence effect against ALOMY: 90%
[3]; 320 g/ha
  Post-emergence effect against ALOMY: 90%
[4]; 80 g/ha
  Post-emergence effect against AVEFA: 90%
[4]; 320 g/ha
  Post-emergence effect against AVEFA: 90%
[5]; 80 g/ha
  Post-emergence effect against LOLRI in %: 90%
[5]; 320 g/ha
  Post-emergence effect against LOLRI in %: 90%
[6]; 20 g/ha
  Post-emergence effect against POLCO in %: 80%
[6]; 80 g/ha
  Post-emergence effect against POLCO in %: 90%
[6]; 320 g/ha
  Post-emergence effect against POLCO in %: 90%
[7]
  Post-emergence effect against ECHCG: 90%
[7]; 80 g/ha
  Post-emergence effect against ECHCG in %: 90%
[7]; 320 g/ha
  Post-emergence effect against ECHCG in %: 90%
[8]; 80 g/ha
  Post-emergence effect against VERPE in %: 90%
[8]; 320 g/ha
  Post-emergence effect against VERPE in %: 90%
[8]; Veronica persica, 504 h, 20 g/ha, read-out: Post-emergence effect against VERPE in %
  pest or weed control at 20 g/ha: 80%
[9]; 80 g/ha
  Post-emergence effect against ABUTH: 90%
[9]; 320 g/ha
  Post-emergence effect against ABUTH: 90%
[9]; Abutilon theophrasti, 504 h, 20 g/ha, read-out: Post-emergence effect against ABUTH
  pest or weed control at 20 g/ha: 90%
[10]; 80 g/ha
  Post-emergence effect against MATIN in %: 80%
[10]; 320 g/ha
  Post-emergence effect against MATIN in %: 80%
[11]; 80 g/ha
  Post-emergence effect against SETVI in %: 90%
[11]; 320 g/ha
  Post-emergence effect against SETVI in %: 90%
[11]
  pest or weed control at 20 g/ha: 90%
[12]; 20 g/ha
  Post-emergence effect against PHBPU in %: 90%
[12]; 80 g/ha
  Post-emergence effect against PHBPU in %: 90%
[12]; 320 g/ha
  Post-emergence effect against PHBPU in %: 90%
[13]; 20 g/ha
  Post-emergence effect against VIOTR in %: 90%
[13]; 80 g/ha
  Post-emergence effect against VIOTR in %: 90%
[13]; 320 g/ha
  Post-emergence effect against VIOTR in %: 90%
[14]; 80 g/ha
  Post-emergence effect against AMARE: 80%
[14]; 320 g/ha
  Post-emergence effect against AMARE: 90%
